We go through one compound from US20260137678A1, “METHODS FOR TREATING OR PREVENTING NEUROENDOCRINE TUMOR FORMATION USING XPO1 INHIBITORS” (priority 2022, published 2026).

The test system of one experiment is LuCAP49 (NEPC) PDX. Description: In vivo treatment of PDX, tumor growth and tumor western blots. On the set-up: species or system mice. The settings on record: tumors from in vivo treatment; selinexor added to cisplatin. For orientation: Immunoblotting shows a protein as a band on a membrane.
A further experiment deals with SOX2. Description: SOX2 mRNA and protein expression in selinexor-treated isogenic cell lines. In kind it is cell-based. To be noted: H1563, 22PC and LnCap cell lines, selinexor 5 nM for 4 days. The text has this:
FIGS. 6A-6J: Exportin 1 inhibition downregulates SOX2 expression, hindering the acquisition of NE features. Pathway enrichment analysis on DEGs from enzalutamide versus control (FIG. 6A) and combo versus enzalutamide (FIG. 6B) conditions in the transcriptomic data from TP53/RB1 DKO 22PC xenografts treated in vivo and collected at control arm experimental endpoint (day 31). Categorized pathways of interest, previously involved in NE transformation^5,6, are shown. FIG. 6C: SOX2 mRNA expression in tumors divided by treatment condition. mRNA expression values are shown as TPM (n=4, 3, 3 and 3 tumors for the control, enzalutamide-, selinexor- and combo-treated tumors). […] Mice weights and tumor volumes were measured twice a week and mice were sacrificed when tumors reached humane endpoint (volume=1000 mm^3). […] For western blots and mRNA plots, representative images are shown. p-values were calculated using the Student's t-test (unpaired, heterogeneous variances, two-tailed). p-value legend: *<0.05, **<0.01, ***<0.001. […]
Protein extraction and western blot were performed as previously described^24 from frozen cell pellets or flash-frozen tumor samples using RIPA lysis buffer with 1×HALT protease inhibitor cocktail (Thermo, #78446). […] Quantifications were performed with the Image Studio software (Version 3.1, Li-Cor). […]

Experiment [1] deals with control and TP53/RB1-inactivated LnCap/AR (PRAD) cells. Description: Monotherapy cytotoxicity assay (CellTiter-Glo viability). It is filed as cell-based. The settings on record: 5 nM selinexor; TP53/RB1 inactivation relative to wild-type controls. An excerpt:
FIGS. 2A-2E. Loss of TP53/RB1 function induces exportin 1 expression and sensitivity to selinexor. FIG. 2A: XPO1 mRNA expression in LUAD clinical specimens, categorized by their TP53/RB1 status. Data obtained from LUAD TCGA (PanCancer, n=237 wild type (wt), 33 mutated), LUAD OncoSG (OncoSG, Nat Genetics 2020, n=109 wt, 6 mutated) and PRAD TCGA (PanCancer, n=367 wt, 6 mutated)^14,15. FIG. 2B: Western blot showing exportin 1 protein abundance in isogenic H1563 (LUAD) and 22PC (PRAD) cell lines with or without induced loss of function of TP53 and/or RB1 and western blot quantification (n=2) (see methods). FIG. 2C: Barplot showing a representative biological replicate of an experiment assessing viability of control and TP53/RB1-loss (DKO) H1563, 22PC and LnCap (PRAD) cells treated with 5 nM selinexor. […] For FIGS. 2B-2C, p-values were calculated using the Student's t-test (unpaired, heterogeneous variances, two-tailed). p-value legend: *<0.05, **<0.01, ***<0.001. […]
Cytotoxic assays were performed as described in^22 with a total of 1,500 cells/well seeded in 96-well plates and treated with the drugs/doses described for 96 hours. Viability was assessed with the CellTiter-Glo 2.0 Assay (Promega, G9242) as indicated by manufacturer, and normalized to the untreated control wells.
(In general: ATP-based viability assays read luminescence as a measure of living cells.)

Turning to `O=C(/C=C\n1cnc(-c2cc(C(F)(F)F)cc(C(F)(F)F)c2)n1)NNc1cnccn1` [selinexor], the “activation of the AKT pathway in tumors (western blot)” value with LuCAP49 (NEPC) PDX was “suppressed”. The “induction of SOX2 mRNA and protein by TP53/RB1 inactivation” value in the experiment with SOX2 is given as “prevented”. For the same compound, the “selinexor sensitivity (viability)” value in experiment [1] is recorded as “increased selinexor sensitivity”.
